From PubChem BioAssay (NCI)
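Tested at 5 concentrations; 48 h exposure; 96-well plates; endpoints linearly interpolated, else capped at highest concentration. GI50 marks 50% less growth. TGI: concentration producing complete growth inhibition.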

What was measured:
Assay in all cases: NCI anticancer screen, dose series, 48 h; in the data active = GI50 below about 0.43 µM; inactive = the rest
U251 CNS = system: U251 CNS
SNB-75 CNS = system: SNB-75 CNS
MCF7 breast = system: MCF7 breast
M14 melanoma = system: M14 melanoma
SF-539 CNS = system: SF-539 CNS
RXF 393 renal = system: RXF 393 renal
LOX IMVI melanoma = system: LOX IMVI melanoma
HCC-2998 colon = system: HCC-2998 colon
SR leukemia = system: SR leukemia
DU-145 prostate = system: DU-145 prostate
NCI-H460 lung = system: NCI-H460 lung
MDA-MB-231 breast = system: MDA-MB-231 breast
KM12 colon = system: KM12 colon
IGROV1 ovarian = system: IGROV1 ovarian
HCT-15 colon = system: HCT-15 colon
HCT-116 colon = system: HCT-116 colon
SK-MEL-28 melanoma = system: SK-MEL-28 melanoma
SNB-19 CNS = system: SNB-19 CNS
HS 578T breast = system: HS 578T breast
UO-31 renal = system: UO-31 renal
MOLT-4 leukemia = system: MOLT-4 leukemia
CAKI-1 renal = system: CAKI-1 renal
CCRF-CEM leukemia = system: CCRF-CEM leukemia
ACHN renal = system: ACHN renal
SN12C renal = system: SN12C renal
NCI/ADR-RES ovarian = system: NCI/ADR-RES ovarian
SW-620 colon = system: SW-620 colon
SF-268 CNS = system: SF-268 CNS
HL-60(TB) leukemia = system: HL-60(TB) leukemia
BT-549 breast = system: BT-549 breast
HT29 colon = system: HT29 colon
OVCAR-5 ovarian = system: OVCAR-5 ovarian
COLO 205 colon = system: COLO 205 colon
786-0 renal = system: 786-0 renal
SK-MEL-2 melanoma = system: SK-MEL-2 melanoma
T-47D breast = system: T-47D breast
OVCAR-4 ovarian = system: OVCAR-4 ovarian
SF-295 CNS = system: SF-295 CNS
NCI-H23 lung = system: NCI-H23 lung
PC-3 prostate = system: PC-3 prostate
MALME-3M melanoma = system: MALME-3M melanoma
UACC-62 melanoma = system: UACC-62 melanoma
SK-MEL-5 melanoma = system: SK-MEL-5 melanoma
OVCAR-3 ovarian = system: OVCAR-3 ovarian
OVCAR-8 ovarian = system: OVCAR-8 ovarian
A549 NSCLC = system: A549 NSCLC
HOP-92 NSCLC = system: HOP-92 NSCLC
NCI-H226 lung = system: NCI-H226 lung
TK-10 renal = system: TK-10 renal
UACC-257 melanoma = system: UACC-257 melanoma
A498 renal = system: A498 renal
MDA-MB-435 = system: MDA-MB-435
HOP-62 NSCLC = system: HOP-62 NSCLC
RPMI-8226 leukemia = system: RPMI-8226 leukemia
EKVX NSCLC = system: EKVX NSCLC
SK-OV-3 ovarian = system: SK-OV-3 ovarian
NCI-H522 lung = system: NCI-H522 lung

CCOC(=O)c1cc2cc(OCc3ccccc3)ccc2[nH]1
inactive: GI50 (U251 CNS) > 100 µM | GI50 (SNB-75 CNS) 26 µM | GI50 (MCF7 breast) > 100 µM | GI50 (M14 melanoma) > 100 µM | GI50 (SF-539 CNS) > 100 µM | GI50 (RXF 393 renal) > 100 µM | GI50 (LOX IMVI melanoma) > 100 µM | GI50 (HCC-2998 colon) > 100 µM | GI50 (SR leukemia) > 100 µM | GI50 (DU-145 prostate) > 100 µM | GI50 (NCI-H460 lung) > 100 µM | GI50 (MDA-MB-231 breast) 49.2 µM | GI50 (KM12 colon) > 100 µM | GI50 (IGROV1 ovarian) > 100 µM | GI50 (HCT-15 colon) > 100 µM | GI50 (HCT-116 colon) > 100 µM | GI50 (SK-MEL-28 melanoma) > 100 µM | GI50 (SNB-19 CNS) > 100 µM | GI50 (HS 578T breast) 49.6 µM | GI50 (UO-31 renal) > 100 µM | GI50 (MOLT-4 leukemia) 36.7 µM | GI50 (CAKI-1 renal) > 100 µM | GI50 (CCRF-CEM leukemia) > 100 µM | GI50 (ACHN renal) > 100 µM | GI50 (SN12C renal) > 100 µM | GI50 (NCI/ADR-RES ovarian) > 100 µM | GI50 (SW-620 colon) > 100 µM | GI50 (SF-268 CNS) > 100 µM | GI50 (HL-60(TB) leukemia) 12.2 µM | GI50 (BT-549 breast) > 100 µM | GI50 (HT29 colon) > 100 µM | GI50 (OVCAR-5 ovarian) > 100 µM | GI50 (COLO 205 colon) > 100 µM | GI50 (786-0 renal) > 100 µM | GI50 (SK-MEL-2 melanoma) > 100 µM | GI50 (T-47D breast) > 100 µM | GI50 (OVCAR-4 ovarian) > 100 µM | GI50 (SF-295 CNS) > 100 µM | GI50 (NCI-H23 lung) > 100 µM | GI50 (PC-3 prostate) > 100 µM | GI50 (MALME-3M melanoma) > 100 µM | GI50 (UACC-62 melanoma) > 100 µM | GI50 (SK-MEL-5 melanoma) > 100 µM | GI50 (OVCAR-3 ovarian) > 100 µM | GI50 (OVCAR-8 ovarian) > 100 µM | GI50 (A549 NSCLC) > 100 µM | GI50 (HOP-92 NSCLC) 62.3 µM | GI50 (NCI-H226 lung) > 100 µM | GI50 (TK-10 renal) > 100 µM | GI50 (UACC-257 melanoma) > 100 µM | GI50 (A498 renal) > 100 µM | GI50 (MDA-MB-435) > 100 µM | GI50 (HOP-62 NSCLC) 92.7 µM | GI50 (RPMI-8226 leukemia) > 100 µM | GI50 (EKVX NSCLC) > 100 µM | GI50 (SK-OV-3 ovarian) > 100 µM | GI50 (NCI-H522 lung) > 100 µM
66.7 µM: TGI (HL-60(TB) leukemia)
> 100 µM: TGI (U251 CNS) | TGI (SNB-75 CNS) | TGI (MCF7 breast) | TGI (M14 melanoma) | TGI (SF-539 CNS) | TGI (RXF 393 renal) | TGI (LOX IMVI melanoma) | TGI (HCC-2998 colon) | TGI (SR leukemia) | TGI (DU-145 prostate) | TGI (NCI-H460 lung) | TGI (MDA-MB-231 breast) | TGI (KM12 colon) | TGI (IGROV1 ovarian) | TGI (HCT-15 colon) | TGI (HCT-116 colon) | TGI (SK-MEL-28 melanoma) | TGI (SNB-19 CNS) | TGI (HS 578T breast) | TGI (UO-31 renal) | TGI (MOLT-4 leukemia) | TGI (CAKI-1 renal) | TGI (CCRF-CEM leukemia) | TGI (ACHN renal) | TGI (SN12C renal) | TGI (NCI/ADR-RES ovarian) | TGI (SW-620 colon) | TGI (SF-268 CNS) | TGI (BT-549 breast) | TGI (HT29 colon) | TGI (OVCAR-5 ovarian) | TGI (COLO 205 colon) | TGI (786-0 renal) | TGI (SK-MEL-2 melanoma) | TGI (T-47D breast) | TGI (OVCAR-4 ovarian) | TGI (SF-295 CNS) | TGI (NCI-H23 lung) | TGI (PC-3 prostate) | TGI (MALME-3M melanoma) | TGI (UACC-62 melanoma) | TGI (SK-MEL-5 melanoma) | TGI (OVCAR-3 ovarian) | TGI (OVCAR-8 ovarian) | TGI (A549 NSCLC) | TGI (HOP-92 NSCLC) | TGI (NCI-H226 lung) | TGI (TK-10 renal) | TGI (UACC-257 melanoma) | TGI (A498 renal) | TGI (MDA-MB-435) | TGI (HOP-62 NSCLC) | TGI (RPMI-8226 leukemia) | TGI (EKVX NSCLC) | TGI (SK-OV-3 ovarian) | TGI (NCI-H522 lung)
